Like-named read-outs stand apart in the source and are kept apart here.
Assays:
Experiment in all cases: cell-based
[1] = target: T1, Human KOR (Homo sapiens, UniProt P41145); settings: for Emax: read-out: Emax in parentheses, Human KOR
T1 construct: expressed in transfected cells; host or cells: HEK-293T

[2] = target: T2, Human DOR (Homo sapiens, UniProt P41143)
T2 construct: expressed in transfected cells; host or cells: HEK-293T

[3] = target: T3, Human MOR (Homo sapiens, UniProt P35372)
T3 construct: expressed in transfected cells; host or cells: HEK-293T

[4] = read-out: EC50 at indicated opioid receptor, Human DOR
[5] = EC50 at indicated opioid receptor, Human MOR
[6] = EC50 at indicated opioid receptor, Human KOR
[7] = EC50 at indicated opioid receptor, Human DOR
[8] = EC50, induced BRET signal, Human KOR
[9] = EC50, induced BRET signal, Human DOR
[10] = EC50, induced BRET signal, Human MOR

T3 sequence (P35372 whole entry): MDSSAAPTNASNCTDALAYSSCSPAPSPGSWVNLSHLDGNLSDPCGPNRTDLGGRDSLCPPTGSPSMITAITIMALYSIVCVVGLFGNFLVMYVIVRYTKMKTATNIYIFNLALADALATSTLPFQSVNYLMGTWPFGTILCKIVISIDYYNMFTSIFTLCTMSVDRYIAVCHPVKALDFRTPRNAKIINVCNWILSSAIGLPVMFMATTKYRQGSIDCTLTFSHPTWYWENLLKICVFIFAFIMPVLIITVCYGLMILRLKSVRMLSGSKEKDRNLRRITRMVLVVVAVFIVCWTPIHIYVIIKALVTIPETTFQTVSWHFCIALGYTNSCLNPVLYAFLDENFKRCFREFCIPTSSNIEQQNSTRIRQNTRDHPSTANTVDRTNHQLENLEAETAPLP
T1 sequence (P41145 whole entry): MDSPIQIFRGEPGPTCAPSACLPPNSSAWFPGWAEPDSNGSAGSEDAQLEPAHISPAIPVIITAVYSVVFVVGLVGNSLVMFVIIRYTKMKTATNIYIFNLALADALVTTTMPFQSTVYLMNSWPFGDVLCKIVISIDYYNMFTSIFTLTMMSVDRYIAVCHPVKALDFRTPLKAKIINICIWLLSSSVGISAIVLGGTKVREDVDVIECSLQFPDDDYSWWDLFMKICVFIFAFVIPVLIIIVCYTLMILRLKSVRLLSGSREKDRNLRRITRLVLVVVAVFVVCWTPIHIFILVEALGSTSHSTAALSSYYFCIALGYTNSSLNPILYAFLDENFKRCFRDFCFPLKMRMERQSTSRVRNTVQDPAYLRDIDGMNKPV
T2 sequence (P41143 whole entry): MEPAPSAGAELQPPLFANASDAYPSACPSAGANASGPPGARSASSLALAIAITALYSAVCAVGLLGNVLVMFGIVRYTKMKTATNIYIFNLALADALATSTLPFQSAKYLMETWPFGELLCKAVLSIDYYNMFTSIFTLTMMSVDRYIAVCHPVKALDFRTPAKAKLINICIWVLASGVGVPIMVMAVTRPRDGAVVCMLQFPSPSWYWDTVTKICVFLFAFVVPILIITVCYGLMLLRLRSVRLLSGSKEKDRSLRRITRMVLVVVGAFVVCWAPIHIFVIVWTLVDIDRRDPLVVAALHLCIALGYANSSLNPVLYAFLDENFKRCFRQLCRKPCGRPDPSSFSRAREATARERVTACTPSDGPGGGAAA

Structure (SMILES) | EC50 [3, 5] | EC50 [1, 6] | EC50 [2, 7] | also measured
CCC1CC2CC3c4oc5ccc(OC)cc5c4CCN(C2)C13 (single isomer, unassigned) [Compound 34c] | > 10 µM | – | – | EC50 ([1]; read-out: EC50 at indicated opioid receptor, Human KOR): > 10 µM; EC50 [2, 4]: > 100 µM
CCC1CC2CC3c4oc5ccc(OC)cc5c4CCN(C2)C13 (single isomer, unassigned) [Compound 34d] | > 100 µM | > 10 µM | > 100 µM | –
CCC1CC2(C)CC3c4oc5ccc(O)cc5c4CCN(C2)C13 (single isomer, unassigned) [Compound 60b] | – | – | – | EC50 ([1]; read-out: EC50, Human KOR): < 10 µM; EC50 ([2]; EC50, Human DOR): < 10 µM; EC50 ([3]; read-out: EC50, Human MOR): < 10 µM
CCC1CC2(C)CC3c4oc5ccc(O)cc5c4CCN(C2)C13 (single isomer, unassigned) [Compound 60c] | – | – | – | EC50 ([1]; EC50, Human KOR): < 10 µM; EC50 ([2]; EC50, Human DOR): > 10 µM; EC50 ([3]; EC50, Human MOR): < 10 µM
CCC1CC2CC3c4oc5ccc(O)cc5c4C[C@H](C)N(C2)C13 (single isomer, unassigned) [α-exo-52e] | – | – | – | Emax [1]: 88%; Emax ([2]; read-out: Emax in parentheses, Human DOR): 98%; EC50 (μM) with Emax in parentheses, Human MOR [3]: 0.40 μM ± 0.056 (98%)
CCC1CC2CC3c4oc5ccc(O)cc5c4C[C@H](C)N(C2)C13 (single isomer, unassigned) [α-exo-52f] | – | – | > 100 µM | EC50 with Emax in parentheses [1]: 0.14 μM ± 0.006 (72%); EC50 (μM) with Emax in parentheses, Human MOR [3]: 0.48 μM ± 0.20 (50%)
CCC1CC2CC3c4oc5ccccc5c4CCN(C2)C13 (stereo not shown) [Compound 34a, 7-ethyl-6,6a,7,8,9,10,12,13-octahydro-6,9-methanobenzofuro[2,3-d] pyrido[1,2-a]azepine] | > 100 µM | > 10 µM | > 100 µM | –
CCCC1CC2CC3c4oc5ccc(OC)cc5c4CCN(C2)C13 (stereo not shown) [Compound 34e] | > 10 µM | > 100 µM | > 100 µM | –
CCCC1CC2CC3c4oc5ccc(OC)cc5c4CCN(C2)C13 (stereo not shown) [Compound 34f] | > 100 µM | > 10 µM | – | EC50 [2, 4]: > 100 µM
COc1ccc2oc3c(c2c1)CCN1CC2CCC1C3C2 (stereo not shown) [Compound 34h] | > 100 µM | > 10 µM | > 100 µM | –
CCCCC1CC2CC3c4oc5ccc(OC)cc5c4CCN(C2)C13 (stereo not shown) [Compound 34i] | > 10 µM | > 10 µM | > 100 µM | –
CCC1CC2CC3c4oc5ccc(F)cc5c4CCN(C2)C13 (stereo not shown) [Compound 34j] | > 10 µM | > 10 µM | > 100 µM | –
CCC1CC2CC3c4oc5cc(OC)ccc5c4CCN(C2)C13 (stereo not shown) [Compound 34k] | < 10 µM | < 10 µM | > 10 µM | –
CCC1CC2CC3c4oc5cc(F)c(OC)cc5c4CCN(C2)C13 (stereo not shown) [Compound 34l] | > 100 µM | > 10 µM | > 100 µM | –
COCC1CC2CC3c4oc5ccc(OC)cc5c4CCN(C2)C13 (stereo not shown) [Compound 34m] | > 10 µM | > 10 µM | > 10 µM | –
COc1ccc2oc3c(c2c1)CCN1CC2CC(c4ccccc4)C1C3C2 (stereo not shown) [Compound 34n] | > 100 µM | > 10 µM | > 100 µM | –
CCC1CC2CC3c4sc5ccccc5c4CCN(C2)C13 (stereo not shown) [Compound 34q, 7-ethyl-6,6a,7,8,9,10,12,13-octahydro-6,9-methanobenzo[4,5] thieno[2,3-d]pyrido[1,2-a]azepine] | > 100 µM | > 10 µM | > 100 µM | –
CCC1CC2CC3c4sc5ccc(OC)cc5c4CCN(C2)C13 (stereo not shown) [Compound 34r] | > 10 µM | > 10 µM | > 100 µM | –
CCC1CC2CC3c4oc5ccc(O)cc5c4CCN(C2)C13 (stereo not shown) [Compound 35a] | < 10 µM | < 10 µM | < 10 µM | agonist activity at KOR (in words) [1]: full agonist; EC50 [1, 8]: 0.66 ± 0.13 µM; agonist activity at DOR (in words) [2]: full agonist; EC50 [2, 9]: 4.5 ± 1.2 µM; agonist activity at MOR (in words) [3]: full agonist; EC50 [3, 10]: 0.98 ± 0.14 µM
CCCC1CC2CC3c4oc5ccc(O)cc5c4CCN(C2)C13 (stereo not shown) [Compound 35c] | < 10 µM | < 10 µM | < 10 µM | –
CCCC1CC2CC3c4oc5ccc(O)cc5c4CCN(C2)C13 (stereo not shown) [Compound 35d] | – | – | – | agonist activity at KOR (in words) [1]: agonist activity; EC50 [1, 8]: 0.297 ± 0.03 µM; agonist activity at DOR (in words) [2]: agonist activity; EC50 [2, 9]: 5.7 ± 5.1 µM; agonist activity at MOR (in words) [3]: agonist activity; EC50 [3, 10]: 0.922 ± 0.282 µM

Structure (SMILES) | EC50 [3, 5] | EC50 [1, 6] | EC50 [2, 7] | also measured
Oc1ccc2oc3c(c2c1)CCN1CC2CCC1C3C2 (stereo not shown) [Compound 35e] | < 10 µM | < 10 µM | > 100 µM | –
CCC1CC2CC3c4oc5cc(O)ccc5c4CCN(C2)C13 (stereo not shown) [Compound 35f] | < 10 µM | < 10 µM | > 10 µM | –
Oc1ccc2oc3c(c2c1)CCN1CC2CC(Cc4ccccc4)C1C3C2 (stereo not shown) [Compound 35g] | < 10 µM | < 10 µM | < 10 µM | –
CCCCC1CC2CC3c4oc5ccc(O)cc5c4CCN(C2)C13 (stereo not shown) [Compound 35h] | < 10 µM | < 10 µM | < 10 µM | –
COCC1CC2CC3c4oc5ccc(O)cc5c4CCN(C2)C13 (stereo not shown) [Compound 35i] | < 10 µM | < 10 µM | < 10 µM | –
OCC1CC2CC3c4oc5ccc(O)cc5c4CCN(C2)C13 (stereo not shown) [Compound 35j] | < 10 µM | < 10 µM | < 10 µM | –
CCC1CC2CC3c4oc5cc(F)c(O)cc5c4CCN(C2)C13 (stereo not shown) [Compound 35k] | < 10 µM | < 10 µM | < 10 µM | –
Oc1ccc2oc3c(c2c1)CCN1CC2CC(c4ccccc4)C1C3C2 (stereo not shown) [Compound 35l] | > 10 µM | > 10 µM | > 10 µM | –
Oc1ccc2oc3c(c2c1)CCN1CC2CC(c4ccccc4)C1C3C2 (stereo not shown) [Compound 35m] | < 10 µM | > 100 µM | < 10 µM | –
CCC1CC2CC3c4sc5ccc(O)cc5c4CCN(C2)C13 (stereo not shown) [Compound 35n] | < 10 µM | < 10 µM | > 100 µM | –
CCC1CC2CC3c4oc5cccc(OC)c5c4CCN(C2)C13 (stereo not shown) [Compound 51b] | – | – | – | EC50 ([1]; EC50, Human KOR): > 10 µM; EC50 ([2]; EC50, Human DOR): > 100 µM; EC50 ([3]; EC50, Human MOR): > 10 µM
CCC1CC2CC3c4oc5cc(C)c(OC)cc5c4CCN(C2)C13 (stereo not shown) [Compound 51c] | – | – | – | EC50 ([1]; EC50, Human KOR): > 10 µM; EC50 ([2]; EC50, Human DOR): > 10 µM; EC50 ([3]; EC50, Human MOR): > 10 µM
CCC1CC2CC3c4oc5c(O)cccc5c4CCN(C2)C13 (stereo not shown) [Compound 52a] | > 100 µM | > 10 µM | > 100 µM | –
CCC1CC2CC3c4oc5cccc(O)c5c4CCN(C2)C13 (stereo not shown) [Compound 52b] | > 10 µM | > 100 µM | > 100 µM | –
CCC1CC2CC3c4oc5cc(C)c(O)cc5c4CCN(C2)C13 (stereo not shown) [Compound 52c] | > 10 µM | > 10 µM | > 10 µM | –
COCC1CC2CC3c4oc5ccc(OC)cc5c4CCN(C2)C13 (stereo not shown) [Compound 59g] | – | – | – | EC50 ([1]; EC50, Human KOR): < 10 µM; EC50 ([2]; EC50, Human DOR): > 100 µM; EC50 ([3]; EC50, Human MOR): > 100 µM
CC1C2CCC3C(C2)c2oc4ccc(O)cc4c2CCN13 (stereo not shown) [Compound 60d] | – | – | – | EC50 ([1]; EC50, Human KOR): < 10 µM; EC50 ([2]; EC50, Human DOR): > 100 µM; EC50 ([3]; EC50, Human MOR): < 10 µM
OCC1CC2CC3c4oc5ccc(O)cc5c4CCN(C2)C13 (stereo not shown) [Compound 60g] | – | – | – | EC50 ([1]; EC50, Human KOR): < 10 µM; EC50 ([2]; EC50, Human DOR): > 10 µM; EC50 ([3]; EC50, Human MOR): > 10 µM
Oc1ccc2oc3c(c2c1)CCN1CC2CC(Cc4ccccc4)C1C3C2 (stereo not shown) [Compound 60h] | – | – | – | EC50 ([1]; EC50, Human KOR): > 10 µM; EC50 ([2]; EC50, Human DOR): > 10 µM; EC50 ([3]; EC50, Human MOR): > 10 µM
CCC1CC2CC3c4oc5ccc(O)cc5c4C[C@@H](C)N(C2)C13 (stereo partly drawn) [α-endo-52e] | – | – | > 100 µM | Emax [1]: 26%; Emax ([3]; read-out: Emax in parentheses, Human MOR): 24%
CCC1(CC)CC2CC3c4oc5ccc(O)cc5c4C[C@@H](C)N(C2)C31 (stereo partly drawn) [α-endo-52f] | > 100 µM | – | > 100 µM | agonist activity at KOR (in words) [1]: selective KOR agonist; EC50 [1, 8]: 0.12 ± 0.014 µM; Emax [1]: 47%; agonist activity at DOR (in words) [2]: not active as agonist; agonist activity at MOR (in words) [3]: not active as agonist
